pIC50: −log10 of the molar value.
Target: T1, human TLR9 (Homo sapiens, UniProt Q9NR96)
T1 construct: host or cells: HEK-Blue cells
T1 sequence (Q9NR96 26-1032): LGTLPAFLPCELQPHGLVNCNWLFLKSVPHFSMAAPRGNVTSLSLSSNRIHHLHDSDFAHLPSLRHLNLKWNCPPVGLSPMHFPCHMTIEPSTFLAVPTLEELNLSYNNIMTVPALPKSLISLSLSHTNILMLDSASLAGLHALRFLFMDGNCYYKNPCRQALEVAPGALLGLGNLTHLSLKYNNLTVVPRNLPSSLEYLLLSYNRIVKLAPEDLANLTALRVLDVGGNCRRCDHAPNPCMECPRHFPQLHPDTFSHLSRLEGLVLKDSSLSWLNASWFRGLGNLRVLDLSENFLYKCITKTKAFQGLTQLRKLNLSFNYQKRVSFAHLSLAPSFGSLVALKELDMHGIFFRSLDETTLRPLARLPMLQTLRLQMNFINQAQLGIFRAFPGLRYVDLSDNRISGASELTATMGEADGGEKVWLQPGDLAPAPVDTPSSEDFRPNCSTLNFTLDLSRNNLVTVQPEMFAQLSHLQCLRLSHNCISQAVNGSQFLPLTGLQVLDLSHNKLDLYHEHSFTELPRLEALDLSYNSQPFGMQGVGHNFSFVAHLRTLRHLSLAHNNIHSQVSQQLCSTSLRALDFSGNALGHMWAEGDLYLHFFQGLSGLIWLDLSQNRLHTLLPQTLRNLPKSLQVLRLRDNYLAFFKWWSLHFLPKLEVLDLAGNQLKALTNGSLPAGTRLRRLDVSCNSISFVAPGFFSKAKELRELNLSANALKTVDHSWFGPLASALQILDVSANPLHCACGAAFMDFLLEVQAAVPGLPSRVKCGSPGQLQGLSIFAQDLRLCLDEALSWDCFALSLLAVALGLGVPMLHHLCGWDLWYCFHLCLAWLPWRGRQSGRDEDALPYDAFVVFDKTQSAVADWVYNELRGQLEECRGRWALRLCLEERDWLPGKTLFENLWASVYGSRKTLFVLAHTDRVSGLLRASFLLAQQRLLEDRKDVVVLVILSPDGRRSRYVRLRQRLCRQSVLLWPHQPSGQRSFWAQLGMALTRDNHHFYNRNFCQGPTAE
Assay: TLR9 inhibition reporter assay (HEK-Blue cells, SEAP reporter)
Type: cell-based
Settings: HEK-Blue cells overexpressing human TLR9, stimulated with ODN2006 5 nM, 22 hour incubation
Method in brief: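 Compound dose-response (0.05 nM–50 μM final) on agonist-stimulated human TLR9 HEK-Blue cells, 25,000/well, incubated 22 h at 37 °C, 5% CO2. Readout was secreted alkaline phosphatase under an IFN-β minimal promoter with NF-κB/AP-1 sites; inhibition expressed relative to DMSO and reference-inhibitor controls.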

| pIC50 | SMILES |
| --- | --- |
| 7.07 | Cc1nc(-c2ccc(CN3CCN(CC(C)(C)O)CC3)cc2)cc2c1cc(-c1ccc(S(C)(=O)=O)cc1)n2C1CC1 [Example 123, 1-(4-(4-(1-cyclopropyl-4-methyl-2-(4-(methylsulfonyl)phenyl)-1H-pyrrolo[3,2-c]pyridin-6-yl)benzyl)piperazin-1-yl)-2-methylpropan-2-ol] |
| 6.35 | Cc1nc(-c2ccc(CN3CCN(CC(C)(C)O)CC3)cc2)cc2c1cc(-c1ccc(S(C)(=O)=O)cc1)n2C(F)F [Example 124, 1-(4-(4-(1-(difluoromethyl)-4-methyl-2-(4-(methylsulfonyl)phenyl)-1H-pyrrolo[3,2-c]pyridin-6-yl)benzyl)piperazin-1-yl)-2-methylpropan-2-ol] |
| 6.88 | CC(C)N1CCN(Cc2ccc(-c3cc4c(cc(-c5ccc(S(C)(=O)=O)cc5)n4C)c(C(C)(C)O)n3)cc2)CC1 [Example 125, 2-(6-(4-((4-isopropylpiperazin-1-yl)methyl)phenyl)-1-methyl-2-(4-(methylsulfonyl)phenyl)-1H-pyrrolo[3,2-c]pyridin-4-yl)propan-2-ol] |
| 6.94 | CC(C)(O)CN1CCN(Cc2ccc(-c3cc4c(cn3)cc(-c3ccc(S(C)(=O)=O)cc3)n4C3CC3)cc2)CC1 [Example 128, 1-(4-(4-(1-cyclopropyl-2-(4-(methylsulfonyl)phenyl)-1H-pyrrolo[3,2-c]pyridin-6-yl)benzyl)piperazin-1-yl)-2-methylpropan-2-ol] |
| 6.93 | CC(C)(O)CCN1CCN(Cc2ccc(-c3cc4c(cn3)cc(-c3ccc(S(C)(=O)=O)cc3)n4C3CC3)cc2)CC1 [Example 129, 4-(4-(4-(1-cyclopropyl-2-(4-(methylsulfonyl)phenyl)-1H-pyrrolo[3,2-c]pyridin-6-yl)benzyl)piperazin-1-yl)-2-methylbutan-2-ol] |
| 7.04 | CC(C)(O)CN1CC2CCC(C1)N2Cc1ccc(-c2cc3c(cn2)cc(-c2ccc(S(C)(=O)=O)cc2)n3C2CC2)cc1 [Example 130, 1-(8-(4-(1-cyclopropyl-2-(4-(methylsulfonyl)phenyl)-1H-pyrrolo[3,2-c]pyridin-6-yl)benzyl)-3,8-diazabicyclo[3.2.1]octan-3-yl)-2-methylpropan-2-ol] |
